Laboratory results as given in patent publication US20090081249A1 (priority 2007, published 2009).

Tested on: B/Hong-Kong/36/05, mutant strain, resistant to zanamivir and oseltamivir
Assay type: cell-based, influenza B

SMILES: CC(=O)N[C@H]1[C@H]([C@H](O)[C@H](O)CO)OC(C(=O)O)=C[C@@H]1N=C(N)N [Zanamivir, zanamivir]
- IC50: 210000 nM
